Results on four compounds are retold here after publication PMC11523213, “Fluorinated N-Heterocyclic Carbene Silver(I) Complexes with High Cancer Cell Selectivity” (Organometallics, 2024).

Like-named read-outs stand apart in the source and are kept apart here.

For one experiment, the system named is DNA. Further details: method as in PMID 27060216. The settings on record: cited from earlier work.
A further experiment relates to MDA-MB-231. Briefly: Cell viability (MTT) assay, 24 h. Type of experiment: cell-based, human. Particulars: for IC50: 24 h treatment, MTT, n = 9, read-out: IC50 ± SD, MDA-MB-231; for MCF-7/MDA-MB-231 SR (selectivity ratio): ratio of IC50 MCF-7 versus MDA-MB-231. On the procedure: (§1) All cells were treated with compounds for 24 h, and cell viability was determined via the MTT assay. […] The nonfluorinated benzyl–imidazole complex [Ag2(L5)2](PF6)2 was synthesized and screened to determine if the fluorine has any influence on cytotoxicity.
(§2) All cytotoxicity assays were conducted using human cell lines: breast adenocarcinomas (MDA-MB-231 and MCF-7) and non-cancerous epithelial retinal (ARPE-19) cell lines. All cell lines were routinely maintained as monolayer cultures in an appropriate complete medium: MCF-7 and ARPE-19 in high glucose DMEM complete medium (including 10% FBS, 1 mM sodium pyruvate, 2 mM L-glutamine and 1% pen-strep) and MDA-MB-231 in RPMI-1640 complete medium (including 10% FBS, 1 mM sodium pyruvate, 2 mM L-glutamine and 1% pen-strep) and grown in either T-25 or T-75 flasks at 37 °C and 5% CO2. Prior to chemosensitivity studies, cell monolayers were passaged using Trypsin-EDTA (0.05%) and diluted to a concentration of 4 × 10^4 cells/mL. All assays were conducted using 96-well plates, in which 100 μL of the cell suspension was added for 24 h at 37 °C and 5% CO2 and then 100 μL of compound/media dilutions for a further 24 h (compound stocks were made using sterile DMSO at 100 mM prior to dilution and a maximum of 0.1% DMSO used in each assay).

The subject of the next experiment is MCF-7. Put plainly: Cell viability (MTT) assay, 24 h. It counts as cell-based, human. Particulars: for IC50: 24 h treatment, MTT, n = 9, read-out: IC50 ± SD, MCF-7. As for the experimental part:
as §1, §2

Another experiment relates to ARPE-19. Briefly: Cell viability (MTT) assay, 24 h, noncancerous cells. Particulars: n = 9, noncancerous retinal epithelia, read-out: IC50 ± SD, ARPE-19. It counts as cell-based, human. As for the experimental part:
as §1, §2

Setting [1] is: Homo sapiens, ARPE-19, 24 h treatment.

For orientation: IC50 means the concentration that gives 50% inhibition.

With `COc1cccc2c1C(=O)c1c(O)c3c(c(O)c1C2=O)C[C@@](O)(C(=O)CO)C[C@@H]3O[C@H]1C[C@H](N)[C@H](O)[C@H](C)O1` [doxorubicin], in the experiment on DNA, the “Binding constant to DNA” value was 2.33 ± 0.33 × 10^4 M^–1.

As to `Fc1ccc(Cn2c[n+](Cc3ccc(F)cc3)c3ccccc32)cc1` [HL2(PF6), 1,3-Bis-(4-fluorobenzyl)benzimidazolium hexafluorophosphate], the IC50 was 42.6 ± 0.05 µM in the experiment on MDA-MB-231 (Homo sapiens, MDA-MB-231); over 100 µM in the experiment with MCF-7 (Homo sapiens, MCF7); over 100 µM in the experiment with ARPE-19 (setting [1]). In addition, the “MCF-7/MDA-MB-231 SR (selectivity ratio)” value in the experiment on MDA-MB-231 is over 2.35.

For the compound `[NH2][Pt]([NH2])([Cl])[Cl]` [CDDP, cisplatin, reference compound], the concentration for half-maximal inhibition (IC50) in the experiment with MDA-MB-231 is over 100 µM; in the experiment with MCF-7, 54 ± 3 µM; with ARPE-19 (24 h treatment), over 100 µM. Moreover, in the experiment with MDA-MB-231, the “MCF-7/MDA-MB-231 SR (selectivity ratio)” value is under 0.54. In addition, the “Selectivity index (SI) MCF-7 vs ARPE-19” value in the experiment with MCF-7 (SI > 1 indicates selectivity for the breast cancer line, * = minimum value) is at least 1.84.

Consider `Fc1ccc(C[n+]2cn(Cn3c[n+](Cc4ccc(F)cc4)c4ccccc43)c3ccccc32)cc1` [H2L4(PF6)2, 1,1′-Bis-(4-fluorobenzyl)-3,3′-methylenedibenzimidazolium dihexafluorophosphate], for which the half-inhibitory concentration (IC50) with MDA-MB-231 (Homo sapiens, MDA-MB-231) was over 100 µM; in the experiment on MCF-7 (Homo sapiens, MCF7), over 100 µM; in the experiment with ARPE-19 (setting [1]), over 100 µM.
